# Test results as given in patent US20190153409A1, “COMPOSITIONS COMPRISING PARTICLES AND METHODS FOR TREATING CANCER” (priority 2017, published 2019).
# Legend:
# p53 = p53 transcription activity: GFP reporter in HCT116 cells transfected with RGC-mazE-IRES-GFP plasmid; type: cell-based, human
# Procedure: In order to test the ability of p53 to bind to its responsive element and stimulate transcription, HCT116 cells were transfected with RGC-mazE-IRES-GFP plasmid. Since p53 is degraded in un-activated cells, the present inventors used Quercetin, a ubiquitous bioactive plant flavonoid that is able to induce p53 phosphorylation, stabilization and total p53 protein accumulation. Another widely used p53 inducer is the antimetabolite agent 5-FU. P53 transcription activity was evaluated by measuring the expression of the downstream reporter gene, GFP.
# HCT116 cells [1] = system: HCT116 cells
# HCT116 cells [2] = test: Cell toxicity in transfected HCT116 cells
# [3] = target: mCherry-MazF (E. coli MazF ribonuclease fused to the C terminus of the monomeric red fluorescence protein mCherry) (E. coli) (UniProt P0AE70); test: cell-based or functional assay
# Sequence of mCherry-MazF (E. coli MazF ribonuclease fused to the C terminus of the monomeric red fluorescence protein mCherry) (E. coli) (P0AE70 whole entry, the tested form may be a part): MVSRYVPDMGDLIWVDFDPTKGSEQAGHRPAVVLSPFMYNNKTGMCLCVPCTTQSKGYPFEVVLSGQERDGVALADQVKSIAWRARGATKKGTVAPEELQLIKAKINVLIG
molecule,measurement,setting,value
O=c1[nH]cc(F)c(=O)[nH]1 [5-FU],GFP expression levels,"p53; 10 μM, compared with Quercetin",significantly higher expression levels of GFP
same,cell toxicity,HCT116 cells [1],no toxicity
O=c1c(O)c(-c2ccc(O)c(O)c2)oc2cc(O)cc(O)c12 [Quercetin],increase of GFP expression,p53; 50 μM,about 10 folds
same,cell death (cell toxicity),HCT116 cells [2],60%
E. coli antitoxin MazE (from UniProt P0AE72 1-82),"yield of mCherry-MazF adenovirus in HEK293 packaging cells that constitutively express MazE, against parental HEK293 cells (orders of magnitude)",[3],2
